Laboratory results taken from paper PMC3901665, “Characterization of Glycolytic Enzymes - rAldolase and rEnolase of Leishmania donovani, Identified as Th1 Stimulatory Proteins, for Their Immunogenicity and Immunoprophylactic Efficacies against Experimental Visceral Leishmaniasis” (PLoS ONE, 2014).

What was measured:
Type in all cases: biochemical, Leishmania donovani
[1] = tested on: T1, rLdEno (L. donovani enolase); assay: spectrophotometric PEP formation at […] nm, Michaelis-Menten; details: 20 mM Tris-HCl pH 7.5, 2 mM MgSO4, 75 mM KCl, 25°C; 0-10 mM 2PGA
T1 construct: gene ENO; full-length ORF (PCR product 1290 bp), N-terminal 6xHis, pET-28a, E. coli C41(DE3), Ni-NTA

[2] = tested on: T2, rLdAld (L. donovani aldolase); assay: hydrazine assay at […] nm, Michaelis-Menten; details: hydrazine sulfate as detection reagent; 0.1-7 mM substrate; pH and temperature not given
T2 construct: gene ALD; full-length ORF (PCR product 1125 bp), 6xHis tag, pET-28a, E. coli, purified on Ni-NTA

[3] = tested on: T1, rLdEno (L. donovani enolase); assay: spectrophotometric at […] nm, Michaelis-Menten; details: 20 mM Tris-HCl pH 7.5, 2 mM MgSO4, 75 mM KCl, 25°C; 0-7.5 mM PEP; reverse reaction

## O=C(O)[C@@H](CO)OP(=O)(O)O [2-phosphoglycerate]
[1]
  Km: 1540 µM

## O=P(O)(O)OC[C@H]1OC(O)(COP(=O)(O)O)[C@@H](O)[C@@H]1O (stereo partly drawn) [D-Fru-1,6-P2]
[2]
  Km: 2060 µM

## C=C(OP(=O)(O)O)C(=O)O [Phosphoenol pyruvate]
[3]
  Km: 3370 µM
